For 17 compounds, inhibition and Activity results are on record in ChEMBL document CHEMBL1144087, “Triterpenoid saponins from Ilex kudincha” (J Nat Prod, 1999).

The target in assay [1] is T1, Sterol O-acyltransferase 1 (Homo sapiens) (UniProt P35610).
T1 sequence (whole entry): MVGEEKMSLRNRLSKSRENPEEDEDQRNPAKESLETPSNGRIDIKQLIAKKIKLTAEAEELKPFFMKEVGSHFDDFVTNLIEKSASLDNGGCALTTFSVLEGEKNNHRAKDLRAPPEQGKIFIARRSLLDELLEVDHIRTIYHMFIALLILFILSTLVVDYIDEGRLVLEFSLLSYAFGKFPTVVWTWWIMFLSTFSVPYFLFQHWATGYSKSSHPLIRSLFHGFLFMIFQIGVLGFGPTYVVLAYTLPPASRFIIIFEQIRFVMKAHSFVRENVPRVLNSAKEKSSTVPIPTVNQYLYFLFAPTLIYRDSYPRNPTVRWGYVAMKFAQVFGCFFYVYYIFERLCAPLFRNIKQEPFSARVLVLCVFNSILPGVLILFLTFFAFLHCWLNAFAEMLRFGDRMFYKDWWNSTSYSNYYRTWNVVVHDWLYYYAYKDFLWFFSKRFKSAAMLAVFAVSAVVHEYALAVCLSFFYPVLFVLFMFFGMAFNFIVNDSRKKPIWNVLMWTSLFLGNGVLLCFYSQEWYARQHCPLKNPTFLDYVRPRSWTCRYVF
Nature of the assay: Inhibition of ACAT at 1 mg/mL.

For assay [2], the target named is T1, Sterol O-acyltransferase 1 (Homo sapiens). Nature of the assay: Inhibition of ACAT at 0.2 mg/mL.
For assay [3] the target is unchanged. Kind of assay: Inhibition of ACAT at 0.05 mg/mL.

Active and inactive are the calls of the source. The calls are words filed in the database; no cut-off is given here.

Consider `CC1(C)[C@@H](O[C@@H]2O[C@H](CO)[C@@H](O)[C@H](O)[C@H]2O[C@@H]2O[C@H](CO)[C@@H](O)[C@H](O)[C@H]2O)CC[C@]2(C)[C@H]3C[C@@H](O)C4=C5[C@]6(CC[C@](C)(OC6=O)[C@@]5(C)O)CC[C@@]4(C)[C@]3(C)CC[C@@H]12`, for which the inhibition in assay [1] was 43%. Also, the result in assay [2] and in assay [3] was inactive.
Take `C[C@@H]1CC[C@]2(C(=O)O[C@@H]3O[C@H](CO)[C@@H](O)[C@H](O)[C@H]3O)CC[C@]3(C)C(=CC[C@@H]4[C@@]5(C)CC[C@H](O[C@@H]6OC[C@H](O)[C@H](O[C@@H]7O[C@H](CO)[C@@H](O)[C@H](O)[C@H]7O)[C@H]6O)C(C)(C)[C@@H]5CC[C@]43C)[C@@H]2[C@]1(C)O`: the result in assay [1] and in assay [2] was inactive.
As for `C[C@@H]1CC[C@]2(C(=O)O[C@@H]3O[C@H](CO)[C@@H](O)[C@H](O)[C@H]3O)CC[C@]3(C)C(=CC[C@@H]4[C@@]5(C)CC[C@H](O[C@H]6O[C@@H](C(=O)O)[C@H](O)[C@@H](O)[C@@H]6O)C(C)(C)[C@@H]5CC[C@]43C)[C@@H]2[C@]1(C)O`, the inhibition in assay [1] is 12.5%. Also, the result in assay [2] was inactive.
For `C[C@H]1[C@H](C)CC[C@]2(C(=O)O[C@@H]3O[C@H](CO)[C@@H](O)[C@H](O)[C@H]3O)CC[C@]3(C)C(=CC[C@@H]4[C@@]5(C)CC[C@H](O[C@H]6O[C@@H](C(=O)O)[C@H](O)[C@@H](O)[C@@H]6O)[C@@](C)(CO)[C@@H]5CC[C@]43C)[C@H]12`, the inhibition stood at 63.9% in assay [1] and 29% in assay [2].
Consider `C[C@@H]1O[C@@H](O[C@H]2[C@H](O[C@H]3CC[C@]4(C)[C@H]5CC=C6[C@H]7[C@]8(CC[C@](C)(OC8=O)[C@@]7(C)O)CC[C@@]6(C)[C@]5(C)CC[C@H]4C3(C)C)OC[C@H](O)[C@@H]2O[C@@H]2O[C@H](CO)[C@@H](O)[C@H](O)[C@H]2O[C@@H]2O[C@H](CO)[C@@H](O)[C@H](O)[C@H]2O)[C@H](O)[C@H](O)[C@H]1O`, for which the outcome in assay [1], in assay [2] and in assay [3] was inactive.
Take `C[C@@H]1O[C@@H](O[C@H]2[C@H](OC(=O)[C@]34CC[C@@H](C)[C@@](C)(O)[C@H]3C3=CC[C@@H]5[C@@]6(C)CC[C@H](O[C@@H]7OC[C@H](O)[C@H](O[C@@H]8O[C@H](CO)[C@@H](O)[C@H](O)[C@H]8O)[C@H]7O[C@@H]7O[C@@H](C)[C@H](O)[C@@H](O)[C@H]7O)C(C)(C)[C@@H]6CC[C@@]5(C)[C@]3(C)CC4)O[C@H](CO)[C@@H](O)[C@@H]2O)[C@H](O)[C@H](O)[C@H]1O`: the outcome in assay [1] and in assay [3] was inactive. This compound displayed an inhibition in assay [2] of 10.6%.
Take `C[C@@H]1O[C@@H](O[C@H]2[C@H](O[C@H]3CC[C@]4(C)[C@H]5CC=C6[C@@H]7CC(C)(C)CC[C@]7(C(=O)O[C@@H]7O[C@H](CO)[C@@H](O)[C@H](O)[C@H]7O)CC[C@@]6(C)[C@]5(C)CC[C@H]4C3(C)C)OC[C@H](O)[C@@H]2O[C@@H]2O[C@H](CO)[C@@H](O)[C@H](O)[C@H]2O)[C@H](O)[C@H](O)[C@H]1O`: the inhibition in assay [1] stood at 25.4%; in assay [3], 31.7%. The outcome in assay [2] was inactive.
As for `C[C@@H]1O[C@@H](O[C@H]2[C@H](OC(=O)[C@]34CCC(C)(C)[C@@H](O)[C@H]3C3=CC[C@@H]5[C@@]6(C)CC[C@H](O[C@@H]7OC[C@H](O)[C@H](O[C@@H]8O[C@H](CO)[C@@H](O)[C@H](O)[C@H]8O)[C@H]7O[C@@H]7O[C@@H](C)[C@H](O)[C@@H](O)[C@H]7O)C(C)(C)[C@@H]6CC[C@@]5(C)[C@]3(C)CC4)O[C@H](CO)[C@@H](O)[C@@H]2O)[C@H](O)[C@H](O)[C@H]1O`, the outcome in assay [1], in assay [2] and in assay [3] was inactive.
As for `C[C@@H]1O[C@@H](O[C@H]2[C@H](O[C@H]3CC[C@]4(C)[C@H]5CC=C6[C@@H]7[C@H](O)C(C)(C)CC[C@]7(C(=O)O[C@@H]7O[C@H](CO)[C@@H](O)[C@H](O)[C@H]7O)CC[C@@]6(C)[C@]5(C)CC[C@H]4C3(C)C)OC[C@H](O)[C@@H]2O[C@@H]2O[C@H](CO)[C@@H](O)[C@H](O)[C@H]2O)[C@H](O)[C@H](O)[C@H]1O`, the inhibition in assay [1] worked out at 20%. In addition, the result in assay [2] and in assay [3] was inactive.
Take `C=C1CC[C@]2(C(=O)O[C@@H]3O[C@H](CO)[C@@H](O)[C@H](O)[C@H]3O[C@@H]3O[C@@H](C)[C@H](O)[C@@H](O)[C@H]3O)CC[C@]3(C)C(=CC[C@@H]4[C@@]5(C)CC[C@H](O[C@@H]6OC[C@H](O)[C@H](O[C@@H]7O[C@H](CO)[C@@H](O)[C@H](O)[C@H]7O[C@@H]7O[C@H](CO)[C@@H](O)[C@H](O)[C@H]7O)[C@H]6O[C@@H]6O[C@@H](C)[C@H](O)[C@@H](O)[C@H]6O)C(C)(C)[C@@H]5CC[C@]43C)[C@@H]2[C@]1(C)O`: the inhibition in assay [1] was found to be 60%. In addition, the result in assay [2] was inactive.
On to `C[C@@H]1O[C@@H](O[C@H]2[C@H](O[C@H]3CC[C@]4(C)[C@H]5CC=C6[C@H]7[C@](C(=O)O[C@@H]8O[C@H](CO)[C@@H](O)[C@H](O)[C@H]8O)(CC[C@@H](C)[C@@]7(C)O)CC[C@@]6(C)[C@]5(C)CC[C@H]4C3(C)C)OC[C@H](O)[C@@H]2O)[C@H](O)[C@H](O)[C@H]1O`, for which the inhibition in assay [1] stood at 72.8%. Moreover, the outcome in assay [2] and in assay [3] was inactive.
As to `C[C@@H]1CC[C@]2(C(=O)O[C@@H]3O[C@H](CO)[C@@H](O)[C@H](O)[C@H]3O)CC[C@]3(C)C(=CC[C@@H]4[C@@]5(C)CC[C@H](O[C@@H]6OC[C@H](O)[C@H](O)[C@H]6O)[C@@](C)(CO)[C@@H]5CC[C@]43C)[C@@H]2[C@]1(C)O`, the inhibition in assay [1] was 18.9%. The result in assay [2] and in assay [3] was inactive.
Consider `C[C@@H]1O[C@@H](O[C@H]2[C@H](O[C@H]3CC[C@]4(C)[C@H]5CC=C6[C@H]7[C@](C(=O)O[C@@H]8O[C@H](CO)[C@@H](O)[C@H](O)[C@H]8O)(CC[C@@H](C)[C@@]7(C)O)CC[C@@]6(C)[C@]5(C)CC[C@H]4C3(C)C)OC[C@H](O)[C@@H]2O[C@@H]2O[C@H](CO)[C@@H](O)[C@H](O)[C@H]2O)[C@H](O)[C@H](O)[C@H]1O`, for which the results for the inhibition in assay [1], in assay [2] and in assay [3] were 31.8%, 10.3% and 10.9%, respectively.
For `CC1(C)[C@@H](O[C@@H]2OC[C@H](O)[C@H](O)[C@H]2O[C@@H]2O[C@H](CO)[C@@H](O)[C@H](O)[C@H]2O)CC[C@]2(C)[C@H]3C[C@@H](O)C4=C5[C@]6(CC[C@](C)(OC6=O)[C@@]5(C)O)CC[C@@]4(C)[C@]3(C)CC[C@@H]12`, in assay [1], the inhibition was determined as 24.1%. The result in assay [2] was inactive.
Turning to `CC1(C)CC[C@]2(C(=O)O[C@@H]3O[C@H](CO)[C@@H](O)[C@H](O)[C@H]3O)CC[C@]3(C)C(=CC[C@@H]4[C@@]5(C)CC[C@H](O[C@H]6O[C@@H](C(=O)O)[C@H](O)[C@@H](O)[C@@H]6O)[C@@](C)(CO)[C@@H]5CC[C@]43C)[C@@H]2C1`, the inhibition in assay [1] came out at 64.3%; in assay [2] it was 36.5%; in assay [3], 15.7%.
`C[C@H]1[C@H](C)CC[C@]2(C(=O)O[C@@H]3O[C@H](CO)[C@@H](O)[C@H](O)[C@H]3O)CC[C@]3(C)C(=CC[C@@H]4[C@@]5(C)C[C@@H](O)[C@H](O[C@@H]6OC[C@H](O)[C@H](O)[C@H]6O)[C@@](C)(CO)[C@@H]5CC[C@]43C)[C@H]12` had an inhibition in assay [1] of 35.5%. The result in assay [2] and in assay [3] was inactive.
Turning to `C[C@@H]1O[C@@H](O[C@H]2[C@H](O[C@H]3CC[C@]4(C)[C@H]5[C@@H](O)CC6=C7[C@]8(CC[C@](C)(OC8=O)[C@@]7(C)O)CC[C@@]6(C)[C@]5(C)CC[C@H]4C3(C)C)OC[C@H](O)[C@@H]2O[C@@H]2O[C@H](CO)[C@@H](O)[C@H](O)[C@H]2O[C@@H]2O[C@H](CO)[C@@H](O)[C@H](O)[C@H]2O)[C@H](O)[C@H](O)[C@H]1O`, the outcome in assay [1], in assay [2] and in assay [3] was inactive.
